# From patent US20250144107A1, “USE OF A PIKFYVE INHIBITOR IN COMBINATION WITH IMMUNOTHERAPY” (The Regents of the University of Michigan, priority 2023, published 2025)
# Experiments:
# B16F10-OVA tumors = assay: B16F10-OVA tumor model with PolyI:C adjuvant; assay type: in vivo, mice
# Experimental: FIG. 16F is a series of four line graphs of the Individual growth curves of subcutaneous B16F10-OVA tumor volume following 21 days of pre-treatment with vehicle versus apilimod, 30 mg/kg daily, with or without subcutaneous injection of water versus PolyI:C, 100 μg on Day 1 and Day 14.
# FIG. 16H is a series of four line graphs of the Individual growth curves of subcutaneous B16F10-OVA tumor volume in mice treated with vehicle or apilimod, 30 mg/kg daily, with or without a subcutaneous injection of water versus PolyI:C, 100 μg once weekly.
# FIG. 26I is a line graph of the subcutaneous tumor volume of B16F10-OVA tumors following 21 days of pre-treatment with vehicle versus apilimod, 30 mg/kg×5 days/week, with or without subcutaneous injection of water versus PolyI:C, 100 μg on Day 1 and Day 14.
# FIG. 26J is a line graph of the subcutaneous tumor volume of B16F10-OVA tumors in mice treated with vehicle or apilimod, 30 mg/kg×5 days/week, with or without subcutaneous injection of water versus PolyI:C, 100 μg once weekly.
# [1] = reported, Ikonomov et al. 2019; cited from earlier work
# [2] = system: immune cells enriched from spleens; assay: Immune cells from spleens of non-tumor-bearing mice; assay type: in vivo
# Experimental: FIG. 13A is a box and whisker plot of relative median fluorescent intensity of surface XCR1 in CD45^+ cells of splenic DCs in PIKfyve inhibitor-treated non-tumor-bearing mice.
# FIG. 13B is a box and whisker plot of cDC1 cells from spleens of mice treated with vehicle or apilimod, 30 mg/kg daily, after 5 days of treatment.
# FIG. 18A is a series of nine scatter plots of the gating strategy for CD69^+ effector, naïve, terminally differentiated, resident memory, central memory, and exhausted CD8^+ T cells from spleens of non-tumor-bearing mice treated with vehicle or apilimod, 30 mg/kg daily, after 5 days of treatment.
# FIG. 18H is a series of nine scatter plots of the gating strategy for FIG. 13A-B and FIG. 18I for myeloid cells and cDCs.
# [3] = Overall comparison across preclinical models; assay type: in vivo; details: in many of models; dose of apilimod higher than ESK981
# Excerpt: This could be, at least partially, explained by the reported instability of apilimod See, e.g., Ikonomov, O. C. et al., Toxicol. Appl. Pharmacol. 2019; 383:114771.
# cDCs = assay: Phenotype of cultured cDCs (flow cytometry, western blot); assay type: cell-based, mice
# Experimental: FIG. 13G (Left) is a line graph of the relative median fluorescent intensity of the surface MHC-I on DMSO or apilimod-treated cDCs treated for 20 hours after 6 days of culture. FIG. 13G (Right) is a box and whisker plot of the surface MHC-I on DMSO or apilimod-treated cDCs treated for 20 hours after 6 days of culture
# FIG. 13H a western blot showing the total vinculin, loading control, and total MHC-I in DMSO or apilimod-treated, 20 hours, cDC lysates after 6 days of culture.
# FIG. 13K (Left) is a line graph of the relative median fluorescent intensity of the surface MHC-II on DMSO or apilimod-treated, 20 hours, cDCs treated after 6 days of culture. FIG. 13K (Right) is a box and whisker plot of the surface MHC-II on DMSO or apilimod-treated, 20 hours, cDCs treated after 6 days of culture.
# FIG. 13L a western blot showing the total vinculin, loading control, and total MHC-II in DMSO or apilimod-treated, 20 hours, cDC lysates after 6 days of culture.
# FIG. 13N a western blot showing the total histone H3, loading control, and total CD80 and CD86 in apilimod-treated, 20 hours, PIKfyve WT vs. KO cDC lysates after 6 days of culture.
# FIG. 13P is a series of six scatter plots of surface CD80 and CD86 on DMSO or apilimod-treated cDCs, with or without 20 hours of PolyI:C, 50 μg/ml, or lipopolysaccharide (LPS), 50 ng/ml, treatment after 6 days of culture.
# FIG. 13R a western blot showing the total vinculin, loading control, and total CD40 in DMSO or apilimod-treated, 20 hours, cDC lysates treated with or without additional LPS, 50 ng/ml, after 6 days of culture day 6.
# FIG. 19B is a line graph of representative density plot of median fluorescent intensity of surface XCR1 in DMSO or apilimod-treated, 20 hours, cDCs after 6 days of culture.
# FIG. 26G is a line graph of the relative median fluorescent intensity of the surface MHC-I, H2-kb, H2-kd, on DMSO or apilimod-treated cDCs with or without PolyI:C, 50 μg/ml or LPS, 50 ng/ml, treatment, 20 hours, after 6 days of culture.
# FIG. 26H is a line graph of the relative median fluorescent intensity of the surface MHC-II, MHC-IA-IE, on DMSO or apilimod-treated cDCs with or without PolyI:C, 50 μg/ml or LPS, 50 ng/ml, treatment, 20 hours, after 6 days of culture.
# [4] = system: subcutaneous B16F10 tumors; assay: Subcutaneous B16F10 tumor model; assay type: in vivo, mice
# Experimental: FIG. 15D is a line graph of the subcutaneous tumor volume of B16F10 tumors in PIKfyve KO mice or WT mice treated with anti-PD1 antibody, 200 μg every 3 days, or isotype control after 15 days.
# FIG. 16D is a line graph of the subcutaneous tumor volume of B16F10 tumors in mice treated with vehicle or apilimod, 30 mg/kg daily, in wild-type or Batf3^−/− mice.
# FIG. 26E is a line graph of the subcutaneous tumor volume of B16F10 tumors in mice treated with vehicle or apilimod, 30 mg/kg daily, in NSG™ mice.
# FIG. 26F is a line graph of the subcutaneous tumor volume of B16F10 tumors in mice treated with vehicle versus apilimod, 30 mg/kg daily, in NSG™ mice.
# [5] = 30 mg/kg daily, 5 days, vs vehicle
smiles,measurement,setting,value
"Cc1cccc(/C=N/Nc2cc(N3CCOCC3)nc(OCCc3ccccn3)n2)c1 [apilimod, N-[(E)-(3-methylphenyl)methylideneamino]-6-morpholin-4-yl-2-(2-pyridin-2-ylethoxy)pyrimidin-4-amine]",subsequent tumor growth,"B16F10-OVA tumors; 21 days pre-treatment, combination of apilimod and PolyI:C, vs control or either agent alone",decrease
same,tumor growth inhibition,"B16F10-OVA tumors; treatment after inoculation, combination of apilimod and PolyI:C",further potentiated
same,tumor growth,"B16F10-OVA tumors; treatment after inoculation, each agent alone",modest tumor growth inhibition
same,stability,[1],instability
same,"percentage of terminally differentiated, memory or exhausted CD8+ T cells",[2]; [5],no changes
same,proportions of CD69+CD8+ T cells,[2]; [5],increased
same,"total surface expression of CD11c, F4/80, or CD11b",[2]; [5],no change
same,total surface expression of XCR1,[2]; [5],increase
same,relative percentage of cDC1s versus cDC2 cells,[2]; within the cDC subset,increase
same,efficacy relative to ESK981,[3],weaker than ESK981
same,surface and total protein expression of MHC-II,cDCs; 20 hours,increased
same,MHC-I and MHC-II expression,"cDCs; DCs in vitro, each agent",stimulated
same,CD80 and CD86 expression,"cDCs; WT DCs, in a dose-dependent manner",induced
same,total expression of CD40,"cDCs; added to LPS treatment, vs DMSO",increased
same,CD80+CD86+ cDCs,cDCs; alone and in combination with PolyI:C and LPS,increase
same,MHC-I and MHC-II expression,cDCs; apilimod added to PolyI:C or LPS,further enhanced
same,surface and total protein expression of MHC-I,"cDCs; cDCs from WT mice, 20 hours",increased
same,total surface expression of XCR1,"cDCs; cultured cDCs, 20 hours, vs DMSO",increase
same,efficacy in Batf3−/− mice,[4]; Batf3−/− mice,lost
same,efficacy in NSG mice,[4]; NSG mice,lost
same,B16F10 tumor growth,"[4]; WT, non-transgenic mice, vs vehicle",reduced
